Experimental data taken from patent publication US5538731A, “Cosmetic” (Mikimoto Pharmaceutical Co., Ltd., priority 1992, dated 1996).

Test: Antioxydation test (linoleic acid, thiocyanate method)
Details: 5 mg specimen
Protocol: In a 50 ml test tube with a screw cap, the following test solution was prepared. […]
This test solution was allowed to stand in a thermostatic bath at 50° C., while light was shut out. […]
12.125 ml of 75% ethanol and 0.125 ml of 30% ammonium thiocyanate were added to 0.125 ml of the test solution, and the solution was stirred and then allowed to stand for 3 minutes. Afterward, 0.125 ml of a 3.5% aqueous HCl solution including 0.02 N ferrous chloride was added thereto, and the solution was stirred and then allowed to stand for 3 minutes. Next, absorbance was measured at a wavelength of 500 nm. A cell length was 10 mm, and a control was prepared by replacing the test solution with water.

Question: With Vitamin E as the substance, how does the “Absorbance at 500 nm After 3 days” value (linoleic acid test solution at 50° C., light shut out, water 0.050) read?
Answer: Its value is 0.026.

Question: And the “Absorbance at 500 nm After 5 days” value (linoleic acid test solution at 50° C., light shut out, water 0.103)?
Answer: Its value is 0.047.

Question: And the “Absorbance at 500 nm After 7 days” value (linoleic acid test solution at 50° C., light shut out, water 0.262)?
Answer: Its value is 0.070.

Question: And the “Absorbance at 500 nm After 0 day” value (linoleic acid test solution, before placing at 50° C., water 0.014)?
Answer: Its value is 0.015.
